# Test results reported in paper PMC7509637 (Advanced Science, 2020).
# Entries after “also recorded” stand apart in the source; their conditions may differ.
# B1: FapCS: FapC seeds obtained by sonication of mature FapC fibrils (P. aeruginosa) (protein)
# chain: GNEGGWHPPKPNPQSNNKGGATALVVDTQQNYNNKVSNFGTLNNASVSGSIKDASGNVGVNVAAGDNNQQANAAALASADASFVFGTATASTSVLQSGYGNTLNNYSNPNTASLSNSANNVSGNLGVNVAAGNFNQQKNDLAAAVSNGQYSTAGSAASQTSTGNTTVNSANYAYGGTYVSLKLNADGSYKGTSDQIGDVYLDTWEGQTHPGGSNTGHIDVDSQAQGAKDLNHDGGAFAFKEKGDVDLKGTVSGFIPAIVGFKTPVTNNASLSNSLQNVSGNVGVNIAAGGGNQQSNSLSIAAGCSSCPAGGESLGF
# Experiments:
# adult zebrafish [1] = experiment: Behavioral pathology of adult zebrafish (swimming); type: in vivo, zebrafish (AB, Danio rerio)
# Method: Adult zebrafish (10 months) were employed for the study. Prior to microinjection, adult zebrafish were anesthetized by placing them in a beaker filled with ice‐chilled tricaine (0.01% in Holtfreter's buffer) for 20 s. The samples of Aβ alone and Aβ with FapCS or bacterial biofilm fragments were injected to the cerebroventricular space of adult fish with a 1 µL Hamilton glass syringe. The concentration of the Aβ peptide was 40 × 10^−6 M (in PBS, pH 7.4) while FapCS or biofilm fragments were included at a 10:1 ratio (Aβ:FapCS or biofilm fragments). The needle penetrated between left and right telencephalon for not more than 1 mm and injection volume was 1 µL. The syringe was washed with ethanol and PBS in between the injections. The injections were made under a stereomicroscope and fish were held in place with forceps. After microinjection, the fish was placed back in the water tank for recovery.
# The behavioral pathology of the adult fish was observed after 4 d and 2 weeks of microinjection. The behavioral pathology of movement frequency and traveled distance was recorded with a zebrabox (Viewpoint) in a 1 L swimming tank. For cognitive function test, the tank was hypothetically divided into two parts of arena 1 and arena 2, and arena 2 was labeled by pasting a red paper at the bottom of the tank. The behavior of the untreated fish was recorded as positive control, in both arenas. Then fish from each sample were trained to avoid swimming in arena 2 by shocking with a 9 V battery electrodes, whenever the fish swim into arena 2. The fish were allowed to familiarize with the tank for 30 min and then trained for 20 min. After training, the swimming behavior of the fish was recorded in whole tank and then analyzed for arena 1 versus arena 2 with software EthnoVision X1.
# The observations were made for 1 min with three fish per samples. The measurements were made three times in a day and then averaged together. […] Movement trajectories were also recorded with the instrument's camera.
# Aβ = target: T1, Aβ (Homo sapiens, UniProt P05067); experiment: ThT assay of Aβ with P. aeruginosa biofilm fragments; type: biochemical; conditions: Aβ 50 × 10^−6 M ± biofilm fragments 5 × 10^−6 M (protein content), 37 °C, Figure S14
# T1 construct: purchased Anaspec Inc
# Method: P. aeruginosa biofilm fragments were generated by incubating fresh subcultures of bacteria (wild‐type reference strain PAO1) in cation‐adjusted Mueller‐Hinton broth (CAMHB) overnight in a 96‐well plate. After 48 h of incubation, the planktonic bacteria were pipetted out from the culture and replaced with fresh PBS (pH 7.4). The surface pellicle biofilm and ring biofilm attached to the well walls were scooped out and dispersed in PBS. The separated biofilm chunks were purified from the embodied bacteria by vortexing (10 min) with 20 µm glass beads and then repeated centrifugal washing (3 min, 2000 g) with PBS (pH 7.4). The biofilm containing supernatant was collected, concentrated, and adjusted to the concentration of 5 mg mL^−1 in deionized water. The concentration was adjusted with respect to the protein contents of biofilm via the BCA assay. […]
# Aβ (Anaspec Inc., purity ≥ 95%) was dissolved in 100 µL of hexafluoro‐2‐propanol (HFIP) and incubated at room temperature for 3 h. […] The ThT fluorescence (excitation: 445 nm/ emission: 485 nm) was recorded at specified time intervals for 50 h. Kinetic parameters (rate constant k, half‐life t 1/2 and lag‐time) were calculated as described.^[ ^94 ^] Briefly, kinetic curves were fitted to a sigmoidal curve =y0+ymax−y0/1+e^−(t−t1/2)k , where y 0 and y max are initial and final ThT fluorescence values, allowing us to calculate lag time = t 1/2 − 2/k.
# adult zebrafish [2] = experiment: Cognitive memory function of adult zebrafish (arena 2 avoidance); type: in vivo, zebrafish (AB, Danio rerio); conditions: FapCS alone
# Method: Adult zebrafish (10 months) were employed for the study. Prior to microinjection, adult zebrafish were anesthetized by placing them in a beaker filled with ice‐chilled tricaine (0.01% in Holtfreter's buffer) for 20 s. […] The needle penetrated between left and right telencephalon for not more than 1 mm and injection volume was 1 µL. The syringe was washed with ethanol and PBS in between the injections. The injections were made under a stereomicroscope and fish were held in place with forceps. After microinjection, the fish was placed back in the water tank for recovery.
# The behavioral pathology of the adult fish was observed after 4 d and 2 weeks of microinjection. The behavioral pathology of movement frequency and traveled distance was recorded with a zebrabox (Viewpoint) in a 1 L swimming tank. For cognitive function test, the tank was hypothetically divided into two parts of arena 1 and arena 2, and arena 2 was labeled by pasting a red paper at the bottom of the tank. The behavior of the untreated fish was recorded as positive control, in both arenas. […] After training, the swimming behavior of the fish was recorded in whole tank and then analyzed for arena 1 versus arena 2 with software EthnoVision X1.
# The observations were made for 1 min with three fish per samples. […] Movement trajectories were also recorded with the instrument's camera.
# Aβ monomers = experiment: Isothermal titration calorimetry (ITC); type: binding; conditions: Aβ 200 × 10^−6 M into 20 × 10^−6 M seeds, 0.1% NH4OH, 25 °C
# Method: ITC (Malvern MicroCal iTC200) was used to explore the interaction between Aβ monomers and oligomers (Aβo) with FapCS. Sample solutions were degassed at 25 °C while stirring (100 rpm). Aβ (200 × 10^−6 M, 40 µL) was filled into the syringe while FapCS or bLgS (20 × 10^−6 M, 200 µL) were filled in the cell (coin shaped). 0.1% NH4OH buffer solution was used for both solutions. Aβ was injected into the cell at an injection volume of 2 µL at the duration of 4 s and with a spacing of 180 s. First injection was 0.2 µL for 0.4 s duration and a total of 16 injections were programed. The heat exchange was recorded with a Microcal analysis (origin v7) software. The heat of dilution (Aβ against buffer) was subtracted from the interaction heat of samples. The acquired curves were fitted to a sequential binding model and thermodynamic parameters of binding energy (ΔH), free energy (ΔG), and entropic factor (TΔS) were calculated. Aβo for the ITC experiments was prepared by incubating Aβ aqueous solution (200 × 10^−6 M) at 4 °C for 48 h.^[ ^65 ^]
# [3] = 2 weeks postinjection, Aβ 1 µL, 40 × 10^−6 M, n = 3 per group, three groups
Molecule,distance traveled (adult zebrafish [1]; [3]) [cm per min],movement frequency (adult zebrafish [1]; [3]) [per min],swimming behavior (in words) (adult zebrafish [1]; 4 d postinjection),lag time (Aβ) [h],"cognitive memory function (in words), time not stated (adult zebrafish [2])",binding to Aβ by ITC (in words) (Aβ monomers)
amyloid beta [Aβ],57 ± 6.9,6 ± 2,did not produce significant difference in the swimming behavior compared to the buffer control,23,–,–
B1,–,–,–,–,did not induce any cognitive deficiencies,weak but favorable interaction; also recorded: favorable binding with Aβ
